# Molecular target: T1, ALK F1174L (Homo sapiens, UniProt Q9UM73, F1174L)
# T1 construct: purchased Thermo Fisher Scientific (Life Technologies) SelectScreen
# Test: SelectScreen LanthaScreen
# Type: binding
# Settings: read-out: % displacement
# Outline: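 Percent values come from Thermo SelectScreen profiling of NU5455, combining activity and binding assays. CSF1R was run in Z'LYTE format at Km app ATP, and CAMK1 in Adapta format with ATP listed at 10.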
# T1 sequence (Q9UM73 19-1620 F1174L): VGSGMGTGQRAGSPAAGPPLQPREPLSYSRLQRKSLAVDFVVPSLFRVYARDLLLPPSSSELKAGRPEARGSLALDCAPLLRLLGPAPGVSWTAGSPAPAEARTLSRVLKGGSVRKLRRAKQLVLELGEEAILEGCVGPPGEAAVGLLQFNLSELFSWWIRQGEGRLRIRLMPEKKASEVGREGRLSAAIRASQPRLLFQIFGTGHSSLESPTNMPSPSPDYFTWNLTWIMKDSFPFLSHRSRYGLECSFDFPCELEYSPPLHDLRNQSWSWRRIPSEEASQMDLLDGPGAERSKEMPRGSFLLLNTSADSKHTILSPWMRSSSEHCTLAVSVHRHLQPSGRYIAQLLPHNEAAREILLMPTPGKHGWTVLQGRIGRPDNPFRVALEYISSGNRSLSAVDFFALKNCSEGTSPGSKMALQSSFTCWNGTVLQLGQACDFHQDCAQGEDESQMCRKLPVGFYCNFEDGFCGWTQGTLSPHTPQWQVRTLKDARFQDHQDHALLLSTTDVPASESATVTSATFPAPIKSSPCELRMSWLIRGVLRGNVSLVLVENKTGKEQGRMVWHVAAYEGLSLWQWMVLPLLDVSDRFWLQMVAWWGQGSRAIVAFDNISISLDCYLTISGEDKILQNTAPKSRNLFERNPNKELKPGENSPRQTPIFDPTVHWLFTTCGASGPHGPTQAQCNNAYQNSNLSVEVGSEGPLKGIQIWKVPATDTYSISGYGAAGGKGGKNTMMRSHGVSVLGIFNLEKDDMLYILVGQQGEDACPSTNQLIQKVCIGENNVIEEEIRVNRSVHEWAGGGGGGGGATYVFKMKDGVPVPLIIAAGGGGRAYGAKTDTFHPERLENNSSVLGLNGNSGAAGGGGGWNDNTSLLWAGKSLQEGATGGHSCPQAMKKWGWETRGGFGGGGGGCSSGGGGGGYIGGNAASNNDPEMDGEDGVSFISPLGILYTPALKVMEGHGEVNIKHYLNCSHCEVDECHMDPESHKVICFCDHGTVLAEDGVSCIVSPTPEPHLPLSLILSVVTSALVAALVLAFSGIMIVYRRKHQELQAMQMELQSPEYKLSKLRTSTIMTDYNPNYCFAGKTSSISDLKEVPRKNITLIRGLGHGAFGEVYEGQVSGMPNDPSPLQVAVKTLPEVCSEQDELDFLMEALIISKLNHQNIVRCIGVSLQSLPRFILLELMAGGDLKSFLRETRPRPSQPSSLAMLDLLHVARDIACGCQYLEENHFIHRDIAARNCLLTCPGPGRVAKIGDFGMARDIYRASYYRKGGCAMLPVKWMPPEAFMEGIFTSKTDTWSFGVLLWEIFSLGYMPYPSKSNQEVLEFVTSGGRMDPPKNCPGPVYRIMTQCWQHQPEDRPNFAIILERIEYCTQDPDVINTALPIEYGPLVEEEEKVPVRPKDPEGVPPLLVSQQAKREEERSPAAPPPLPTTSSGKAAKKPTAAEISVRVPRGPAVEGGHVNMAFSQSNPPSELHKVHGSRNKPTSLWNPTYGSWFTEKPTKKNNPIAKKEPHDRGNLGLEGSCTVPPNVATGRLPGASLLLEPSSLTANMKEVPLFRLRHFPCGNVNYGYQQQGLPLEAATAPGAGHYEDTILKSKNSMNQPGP
structure (smiles),measurement,value
CN(C(=O)CN1CCOCC1)c1ccc2sc3c(-c4cccc5c(=O)cc(N6CC7CCC(C6)O7)oc45)cccc3c2c1 [NU5455],inhibition at 1 µM,1.6%

# Source: PMC6934184, “Selective DNA-PKcs inhibition extends the therapeutic index of localized radiotherapy and chemotherapy” (The Journal of Clinical Investigation, 2019)
